Laboratory results: patent publication US10908153B2, “Pseudomonas aeruginosa inhibitor compounds” (priority 2015, dated 2021)

Target: T1, PscE-PscG interaction (Pseudomonas aeruginosa, UniProt P95435+Q9I317)
T1 construct: made in house; host or cells: E. coli
Assay: ELISA test of inhibition of the PscE-PscG interaction
Format: binding
Conditions: for inhibition at 25 µM: read-out: % inhibition PscE-PscG at 50 μm; for PscE-PscG at 50 μM: inhibition by new synthetic analogues at 50 μM, PscG 2.2 μM, PscE solution 3 μM; for inhibition at 50 µM: 4 h, read-out: PscE-PscG at 50 μM; for inhibitory effect compared with clioquinol: ELISA test, 50 μM, Table 2
Method: 50 μL of PscG protein at 1 μM (for screening libraries) or 2.2 μM (for screening newly synthesized molecules) is incubated in a NUNC 96-well plate for 8 h at 4° C. The wells are washed three times with 200 μL of 1× PBS/0.1% Tween20®. The wells are treated overnight at 4° C. with 200 μL of a 5% milk solution in 1× PBS/0.1% Tween20®. The solution is then discarded, and the plate is drained dry.
The test is carried out as follows:
Negative control (lowest signal level): 100 μL of buffer ([…] Tris-HCl, 250 mM NaCl, pH 8.0);
Positive control (highest signal level): 50 μL of buffer and 50 μL of a test solution at 25 (library screening) or 3 μM (screening of analogue molecules) of the PscE protein;
Test of the inhibitors: 40 μL buffer, 50 μL of a solution at 25 μM (library screening) or 3 μM (screening of analogue molecules) of PscE protein and 10 μL of the solution containing the inhibitor to be tested.
The solutions are left for 4 h at room temperature.
The wells are washed three times with 200 μL of 1× PBS/0.1% Tween20®. The anti-PscE antibody diluted to 1:2,000 in 1× PBS/0.1% Tween20®, 50 μL, is added and the whole is left 2 h at room temperature. The wells are washed three times with 200 μL of 1× PBS/0.1% Tween20®. The HRP-conjugated anti-mouse antibody is diluted to 1:5,000 in 1× PBS/0.1% Tween20® and 50 μL is added and left for 2 h at room temperature. The wells are washed three times with 200 μL of 1× PBS/0.1% Tween20®.
The ELISA test is developed by adding 50 μL of TMB reagent followed by incubation for 15 minutes at room temperature in the dark. The reaction is stopped by adding 50 μL of 2N HCl. The plate is read at 450 nm.

T1 sequence (Q9I317 whole entry): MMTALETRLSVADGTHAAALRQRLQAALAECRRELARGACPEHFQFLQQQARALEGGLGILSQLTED
T1 sequence (P95435 whole entry): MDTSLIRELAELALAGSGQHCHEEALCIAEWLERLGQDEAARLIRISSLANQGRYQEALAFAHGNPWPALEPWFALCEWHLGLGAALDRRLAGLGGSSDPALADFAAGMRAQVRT

Row | Structure (SMILES) | inhibition at 50 µM [%] | inhibitory effect compared with clioquinol | further results
1 | NC(CO)C(=O)NNCc1ccc(O)c(O)c1O (stereo not shown) [Benserazide, reference compound] |  |  | IC50: 11 µM; inhibition at 25 µM: 86.3%
2 | Oc1c(I)cc(Cl)c2cccnc12 [Clioquinol, reference compound] |  |  | IC50: 5 µM; PscE-PscG at 50 μM (240 min): 45.2%; inhibition at 25 µM: 93.7%
3 | Cc1cc2c(C(C)C)c(O)c(O)c(C=O)c2c(O)c1-c1c(C)cc2c(C(C)C)c(O)c(O)c(C=O)c2c1O [Gossypol, reference compound] |  |  | inhibition at 25 µM: 73.9%
4 | CC1(C)CC[C@]2(C(=O)O)CC[C@]3(C)C(=CC[C@@H]4[C@@]5(C)CC[C@H](O)[C@@](C)(CO)[C@@H]5CC[C@]43C)[C@@H]2C1 [Hederagenin, reference compound] |  |  | inhibition at 25 µM: 58%
5 | O=c1c(O)c(-c2cc(O)c(O)c(O)c2)oc2cc(O)cc(O)c12 [Myricetin, reference compound] |  |  | inhibition at 25 µM: 80.5%
6 | O=C(O)CN(CCN(CC(=O)O)CC(=O)O)CCN(CC(=O)O)CC(=O)O [Pentetic acid, reference compound] |  |  | % inhibition PscE-PscG at 50 μm (primary screening of libraries, 50 μm compound, PscG 1 μM, PscE solution 25 μM): 94%
7 | [N-]=[N+]=NCCCCOCCCc1ccc[n+](CCCCOCCCc2cccnc2)c1 [molecule 17, 3-(3-(4-azidobutoxy)propyl)-1-(4-(3-(pyridin-3-yl)propoxy)butyl)pyridinium chloride] |  |  | PscE-PscG at 50 μM: no inhibition
8 | [N-]=[N+]=NCCCCOCCCc1ccc[n+](CCCCCCOCCCc2cccnc2)c1 [molecule 18, 3-(3-(4-azidobutoxy)propyl)-1-(6-(3-(pyridin-3-yl)propoxy)hexyl)pyridinium chloride] |  |  | PscE-PscG at 50 μM: no inhibition
9 | [N-]=[N+]=NCCCCCCOCCCc1ccc[n+](CCCCOCCCc2cccnc2)c1 [molecule 19, 3-(3-(6-azidohexyloxy)propyl)-1-(4-(3-(pyridin-3-yl)propoxy)butyl)pyridinium chloride] | 19.8 |  | 
10 | [N-]=[N+]=NCCCCOCCCc1ccc[n+](CCCCCCCCOCCCc2cccnc2)c1 [molecule 20, 3-(3-(4-azidobutoxy)propyl)-1-(8-(3-(pyridin-3-yl)propoxy)octyl)pyridinium chloride] |  |  | PscE-PscG at 50 μM: no inhibition
11 | [N-]=[N+]=NCCCCCCOCCCc1ccc[n+](CCCCCCCCOCCCc2cccnc2)c1 [molecule 22, 3-(3-(6-azidohexyloxy)propyl)-1-(8-(3-(pyridin-3-yl)propoxy)octyl)pyridinium chloride] | 88.8 | superior to clioquinol | 
12 | [N-]=[N+]=NCCCCCCCCCCOCCCc1ccc[n+](CCCCCCOCCCc2cccnc2)c1 [molecule 24, 3-(3-(10-azidodecyloxy)propyl)-1-(6-(3-(pyridin-3-yl)propoxy)hexyl)pyridinium chloride] | 38.6 |  | 
13 | [N-]=[N+]=NCCCCCCCCCCCCOCCCc1ccc[n+](CCCCOCCCc2cccnc2)c1 [molecule 26, 3-(3-(12-azidododecyloxy)propyl)-1-(4-(3-(pyridin-3-yl)propoxy)butyl)pyridinium chloride] | 44.2 |  | 
14 | [N-]=[N+]=NCCCCCCOCCCc1ccc[n+](CCCCCCCCCCOCCCc2cccnc2)c1 [molecule 27, 3-(3-(6-azidohexyloxy)propyl)-1-(10-(3-(pyridin-3-yl)propoxy)decyl)pyridinium chloride] | 39.6 |  | 
15 | [N-]=[N+]=NCCCCCCOCCCc1ccc[n+](CCCCCCCCCCCCOCCCc2cccnc2)c1 [molecule 28, 3-(3-(6-azidohexyloxy)propyl)-1-(12-(3-(pyridin-3-yl)propoxy)dodecyl)pyridinium chloride] | 37.8 |  | 
16 | [N-]=[N+]=NCCCCCCCCOCCCc1ccc[n+](CCCCCCCCCCOCCCc2cccnc2)c1 [molecule 29, 3-(3-(8-azidooctyloxy)propyl)-1-(10-(3-(pyridin-3-yl)propoxy)decyl)pyridinium chloride] | 24 |  | 
17 | [N-]=[N+]=NCCCCCCCCCCOCCCc1ccc[n+](CCCCCCCCCCOCCCc2cccnc2)c1 [molecule 30, 3-(3-(10-azidodecyloxy)propyl)-1-(10-(3-(pyridin-3-yl)propoxy)decyl)pyridinium chloride] | 52.8 | superior to clioquinol | 
18 | [N-]=[N+]=NCCCCCCCCCCCCOCCCc1ccc[n+](CCCCCCCCOCCCc2cccnc2)c1 [molecule 31, 3-(3-(12-azidododecyloxy)propyl)-1-(8-(3-(pyridin-3-yl)propoxy)octyl)pyridinium chloride] | 82.9 | superior to clioquinol | 
19 | [N-]=[N+]=NCCCCCCCCCCCCOCCCc1ccc[n+](CCCCCCCCCCOCCCc2cccnc2)c1 [molecule 33, 3-(3-(12-azidododecyloxy)propyl)-1-(10-(3-(pyridin-3-yl)propoxy)decyl)pyridinium chloride] | 54.2 | superior to clioquinol | 
20 | [N-]=[N+]=NCCCCCCCCCCCCOCCCc1ccc[n+](CCCCCCCCCCCCOCCCc2cccnc2)c1 [molecule 34, 3-(3-(12-azidododecyloxy)propyl)-1-(12-(3-(pyridin-3-yl)propoxy)dodecyl)pyridinium chloride] | 30.6 |  | 
21 | CC(=O)Oc1c(-c2cn(CCCCOCCCc3ccc[n+](CCCCOCCCc4cccnc4)c3)nn2)cc(Cl)c2cccnc12 [molecule 35, 3-(3-(4-(4-(8-acetoxy-5-chloroquinolin-7-yl)-1H-1,2,3-triazol-1-yl)butoxy)propyl)-1-(4-(3-(pyridin-3-yl)propoxy)butyl)pyridinium chloride] | 29.8 |  | 
22 | CC(=O)Oc1c(-c2cn(CCCCOCCCc3ccc[n+](CCCCCCOCCCc4cccnc4)c3)nn2)cc(Cl)c2cccnc12 [molecule 36, 3-(3-(4-(4-(8-acetoxy-5-chloroquinolin-7-yl)-1H-1,2,3-triazol-1-yl)butoxy)propyl)-1-(6-(3-(pyridin-3-yl)propoxy)hexyl)pyridinium chloride] | 54.2 | superior to clioquinol | 
23 | CC(=O)Oc1c(-c2cn(CCCCCCOCCCc3ccc[n+](CCCCOCCCc4cccnc4)c3)nn2)cc(Cl)c2cccnc12 [molecule 37, 3-(3-(6-(4-(8-acetoxy-5-chloroquinolin-7-yl)-1H-1,2,3-triazol-1-yl)hexyloxy)propyl)-1-(4-(3-(pyridin-3-yl)propoxy)butyl)pyridinium chloride] | 92.5 | superior to clioquinol | 
24 | CC(=O)Oc1c(-c2cn(CCCCOCCCc3ccc[n+](CCCCCCCCOCCCc4cccnc4)c3)nn2)cc(Cl)c2cccnc12 [molecule 38, 3-(3-(4-(4-(8-acetoxy-5-chloroquinolin-7-yl)-1H-1,2,3-triazol-1-yl)butoxy)propyl)-1-(8-(3-(pyridin-3-yl)propoxy)octyl)pyridinium chloride] | 27.3 |  | 
25 | CC(=O)Oc1c(-c2cn(CCCCCCOCCCc3ccc[n+](CCCCCCOCCCc4cccnc4)c3)nn2)cc(Cl)c2cccnc12 [molecule 39, 3-(3-(6-(4-(8-acetoxy-5-chloroquinolin-7-yl)-1H-1,2,3-triazol-1-yl)hexyloxy)propyl)-1-(6-(3-(pyridin-3-yl)propoxy)hexyl)pyridinium chloride] | 97.3 | superior to clioquinol | 
26 | CC(=O)Oc1c(-c2cn(CCCCCCOCCCc3ccc[n+](CCCCCCCCOCCCc4cccnc4)c3)nn2)cc(Cl)c2cccnc12 [molecule 40, 3-(3-(6-(4-(8-acetoxy-5-chloroquinolin-7-yl)-1H-1,2,3-triazol-1-yl)hexyloxy)propyl)-1-(8-(3-(pyridin-3-yl)propoxy)octyl)pyridinium chloride] | 87.2 | superior to clioquinol | 
27 | CC(=O)Oc1c(-c2cn(CCCCCCCCOCCCc3ccc[n+](CCCCCCOCCCc4cccnc4)c3)nn2)cc(Cl)c2cccnc12 [molecule 41, 3-(3-(8-(4-(8-acetoxy-5-chloroquinolin-7-yl)-1H-1,2,3-triazol-1-yl)octyloxy)propyl)-1-(6-(3-(pyridin-3-yl)propoxy)hexyl)pyridinium chloride] | 69.1 | superior to clioquinol | 
28 | CC(=O)Oc1c(-c2cn(CCCCCCCCCCOCCCc3ccc[n+](CCCCCCOCCCc4cccnc4)c3)nn2)cc(Cl)c2cccnc12 [molecule 42, 3-(3-(10-(4-(8-acetoxy-5-chloroquinolin-7-yl)-1H-1,2,3-triazol-1-yl)decyloxy)propyl)-1-(6-(3-(pyridin-3-yl)propoxy)hexyl)pyridinium chloride] |  |  | PscE-PscG at 50 μM: no inhibition
